{"source": "patent US6777422B2", "about": "“Substituted tetrahydroisoquinolines as C5a receptor modulators” (Neurogen Corp., priority 2002, dated 2004)", "target": "T1, human C5a receptor (Homo sapiens, UniProt P21730)", "T1 construct": "endogenous in cells; host or cells: U937 cells differentiated with 1 mM dibutyryl cAMP", "T1 sequence (P21730 1-350)": "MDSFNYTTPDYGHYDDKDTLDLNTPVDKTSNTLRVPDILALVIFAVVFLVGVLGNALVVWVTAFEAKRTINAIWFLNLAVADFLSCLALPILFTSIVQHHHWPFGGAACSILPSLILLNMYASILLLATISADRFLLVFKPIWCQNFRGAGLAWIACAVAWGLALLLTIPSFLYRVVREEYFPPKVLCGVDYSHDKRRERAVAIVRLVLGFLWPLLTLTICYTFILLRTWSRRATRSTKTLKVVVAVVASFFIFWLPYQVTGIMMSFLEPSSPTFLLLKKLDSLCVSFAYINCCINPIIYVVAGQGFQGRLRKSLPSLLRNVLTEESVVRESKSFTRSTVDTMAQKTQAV", "test": "C5a receptor mediated calcium mobilization assay (Example 20)", "format": "cell-based", "conditions": "differentiated U937 cells, unit inferred, read-out: Ca2+ (numeric value, C5a receptor mediated calcium mobilization)", "method_in_brief": "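Differentiated U937 cells (dibutyryl cAMP, 48 h) loaded with Fluo-3 were pre-incubated 1 h with compound at 1 μM, then challenged with 0.3 nM (final) human recombinant C5a. Calcium response monitored by FLIPR fluorescence (Ex 480/Em 530 nm); antagonism defined as ≥2-fold decrease versus C5a alone.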", "data": [{"compound": "Cc1ccccc1C1c2ccsc2CCN1CC(=O)N(Cc1ccccc1F)C1Cc2ccccc2C1", "note": "(stereo not shown) [Compound 136, N-(2-Fluoro-benzyl)-N-indan-2-yl-2-(4-o-tolyl-6,7-dihydro-4H-thieno[3,2-c]pyridin-5-yl)-acetamide]", "values": [{"measurement": "Ki", "value": 0.0399, "unit": "µM"}]}]}
